Patent US9943501B2 (KOJUN JAPAN CO., LTD., priority 2014, dated 2018)

Experiments:
[1] = tested on: C57BL/6J mice fed with a high-fat diet; experiment: Adiponectin in blood of dietary-induced obesity mouse model; assay type: in vivo; conditions: 85 days, FIG. 15
Excerpt: Adiponectin is a secretory protein related to dysmetabolic syndrome such as insulin resistance, diabetes mellitus or arteriosclerosis. Adiponectin-deficient mice have the properties of being more likely to develop insulin resistance and being more likely to be affected by arteriosclerosis than wild-type mice. In humans as well, it is known that lowered adiponectin concentrations are related to dysmetabolic syndrome such as diabetes mellitus and arteriosclerosis. Thus, the dietary-induced obesity mouse models of Example 9 were subjected to the test of measuring the amount of adiponectin in blood.
For each individual of the male C57BL/6J mice after a lapse of 85 days into the test of Example 9, blood was collected from the abdominal vena cava using a syringe supplemented with heparin under anesthesia with 2% isoflurane. The amount of blood collected was set to approximately 0.8 mL. The collected blood was stored under ice cooling until centrifugation. After centrifugation (conditions: 4° C., approximately 1800×g, 10 min), the upper layer was recovered to obtain plasma. The plasma was dispensed to sampling tubes and cryopreserved until measurement. The mouse adiponectin concentration contained in the mouse plasma obtained from each individual was measured using a commercially available ELISA kit, and the average adiponectin concentration of each test group was determined. […]

[2] = tested on: C57BL/6J mice fed with a high-fat diet; experiment: Insulin in blood of dietary-induced obesity mouse model; assay type: in vivo; conditions: administration groups, particularly the low-dose group; 85 days; FIG. 16
Experimental: For each individual of the male C57BL/6J mice after a lapse of 85 days into the test of Example 9, blood was collected from the abdominal vena cava using a syringe supplemented with heparin under anesthesia with 2% isoflurane. The amount of blood collected was set to approximately 0.8 mL. The collected blood was stored under ice cooling until centrifugation. After centrifugation (conditions: 4° C., approximately 1800×g, 10 min), the upper layer was recovered to obtain plasma. The plasma was dispensed to sampling tubes and cryopreserved until measurement. The mouse adiponectin concentration contained in the mouse plasma obtained from each individual was measured using a commercially available ELISA kit, and the average adiponectin concentration of each test group was determined.
In Example 10, the amount of […] insulin contained in the mouse plasma obtained from each individual was measured using a commercially available ELISA kit, and the average insulin concentration of each test group was determined. The ordinate of the drawing depicts the insulin concentration (ng/mL) in the mouse plasma. The test group indicated by each bar of the bar graph is the same as in FIG. 15 mentioned above.

[3] = tested on: liver (hepatocytes) of C57BL/6J mice fed with a high-fat diet; experiment: Influence of administration on liver tissue (histopathological examination); assay type: in vivo, mouse; conditions: for deposition of fat droplets in the hepatocytes: 12 weeks, high-fat diet
Excerpt: In Example 13, the liver was collected during the collection of fat tissues from each individual and histopathologically examined. The findings from the histopathological examination were as described below.
For the individuals of the normal group, the deposition of fat droplets was not observed in the hepatocytes, whereas only the very mild infiltration of inflammatory cells was observed.

## O=C1C=C(c2ccccc2)C(O)O1 (stereo not drawn) [5H4PB, 5-hydroxy-4-phenylbutenolide]
[1]; 0.01 mg/kg/day
  adiponectin concentration in mouse plasma compared with the control group (t test): significant rise in adiponectin concentration
[1]; 5H4PB administration groups (0.037 μg/kg/day and 0.01 mg/kg/day)
  adiponectin concentration in mouse plasma compared with the control group: confirmed to elevate
[2]
  insulin concentration in mouse plasma compared with the control group: inhibition of a rise in insulin concentration was confirmed
[3]; 0.037 μg/kg/day
  deposition of fat droplets in the hepatocytes: no or only weak depositions of fat droplets
[3]; 0.01 mg/kg/day
  deposition of fat droplets in the hepatocytes: no or only weak depositions of fat droplets
[3]; compared with the rosiglitazone administration groups or the control group
  hepatic damage (histopathological findings): free from hepatic damage
